Test results reported in paper PMC3298469, “A selective and potent CXCR3 antagonist SCH 546738 attenuates the development of autoimmune diseases and delays graft rejection” (BMC Immunology, 2012).

Assays:
Vasopressin (V2) = Vasopressin (V2) (Homo sapiens, UniProt P30518); assay: GPCR counterscreen binding assay
Procedure: (§1) SCH 546738 was tested at concentrations of 1-10 μM against a panel of 49 GPCR binding assays. Most of the assays were not affected by SCH 546738 (Table 2). […] In addition, SCH 546738 has a favourable pharmacokinetic profile in rodents. […] Therefore, SCH 546738 is suitable for in vivo preclinical studies.

Histamine H1 = Histamine H1 (Homo sapiens, UniProt P35367); assay: GPCR counterscreen binding assay
Procedure: as §1

Delta opiate = Delta opiate (Homo sapiens, UniProt P41143); assay: GPCR counterscreen binding assay
Procedure: as §1

Adenosine A1 = Adenosine A1 (Homo sapiens, UniProt P30542); assay: GPCR counterscreen binding assay
Procedure: as §1

Muscarinic M4 = Muscarinic M4 (Homo sapiens, UniProt P08173); assay: GPCR counterscreen binding assay
Procedure: as §1

Neuropeptide Y (Y2) = Neuropeptide Y (Y2) (Homo sapiens, UniProt P49146); assay: GPCR counterscreen binding assay
Sequence of Neuropeptide Y (Y2) (P49146 whole entry): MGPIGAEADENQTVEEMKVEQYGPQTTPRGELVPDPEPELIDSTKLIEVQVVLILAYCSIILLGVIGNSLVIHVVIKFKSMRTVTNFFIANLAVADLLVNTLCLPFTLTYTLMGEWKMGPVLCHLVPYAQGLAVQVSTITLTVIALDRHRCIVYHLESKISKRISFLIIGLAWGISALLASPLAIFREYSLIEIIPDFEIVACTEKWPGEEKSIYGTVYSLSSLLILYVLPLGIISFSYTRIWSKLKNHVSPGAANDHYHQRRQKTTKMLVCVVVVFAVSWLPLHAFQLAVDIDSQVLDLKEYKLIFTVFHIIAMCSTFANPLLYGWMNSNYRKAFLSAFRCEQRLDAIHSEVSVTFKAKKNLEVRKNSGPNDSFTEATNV
Procedure: as §1

Histamine H3 = Histamine H3 (Homo sapiens, UniProt Q9Y5N1); assay: GPCR counterscreen binding assay
Procedure: as §1

CCR2 = CCR2 (Homo sapiens, UniProt P41597); assay: GPCR counterscreen binding assay
Sequence of CCR2 (P41597 whole entry): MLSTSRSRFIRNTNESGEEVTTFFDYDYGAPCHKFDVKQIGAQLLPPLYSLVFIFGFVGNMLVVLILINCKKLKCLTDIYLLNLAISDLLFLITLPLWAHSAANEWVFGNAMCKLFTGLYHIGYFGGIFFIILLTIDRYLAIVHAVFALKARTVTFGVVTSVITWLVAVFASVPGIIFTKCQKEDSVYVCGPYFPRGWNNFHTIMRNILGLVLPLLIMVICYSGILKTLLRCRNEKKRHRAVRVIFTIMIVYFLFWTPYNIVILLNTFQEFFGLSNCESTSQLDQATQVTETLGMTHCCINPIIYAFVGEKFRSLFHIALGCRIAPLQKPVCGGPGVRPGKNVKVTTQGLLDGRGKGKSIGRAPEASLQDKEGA
Procedure: as §1

Prokineticin PKR1 = Prokineticin PKR1 (Homo sapiens, UniProt Q8TCW9); assay: GPCR counterscreen binding assay
Procedure: as §1

Neuropeptide Y (Y5) = Neuropeptide Y (Y5) (Homo sapiens, UniProt Q15761); assay: GPCR counterscreen binding assay
Procedure: as §1

Adrenergic α1A = Adrenergic α1A (Homo sapiens, UniProt P35348); assay: GPCR counterscreen binding assay
Procedure: as §1

Dopamine D4.2 = Dopamine D4.2 (Homo sapiens, UniProt P21917, DEL265-296); assay: GPCR counterscreen binding assay
Sequence of Dopamine D4.2 (P21917 with tags, fused parts or gaps DEL265-296): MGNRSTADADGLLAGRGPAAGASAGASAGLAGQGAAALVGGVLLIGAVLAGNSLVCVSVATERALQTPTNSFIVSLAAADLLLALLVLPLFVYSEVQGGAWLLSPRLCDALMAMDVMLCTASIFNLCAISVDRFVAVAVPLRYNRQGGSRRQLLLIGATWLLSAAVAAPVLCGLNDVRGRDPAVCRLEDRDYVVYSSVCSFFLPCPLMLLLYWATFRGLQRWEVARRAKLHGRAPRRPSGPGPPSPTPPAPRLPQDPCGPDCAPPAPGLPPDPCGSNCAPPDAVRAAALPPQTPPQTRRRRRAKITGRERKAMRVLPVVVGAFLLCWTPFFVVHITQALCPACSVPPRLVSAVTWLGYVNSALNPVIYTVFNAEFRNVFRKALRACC
Procedure: as §1

Adrenergic α2B = Adrenergic α2B (Homo sapiens, UniProt P18089); assay: GPCR counterscreen binding assay
Sequence of Adrenergic α2B (P18089 whole entry): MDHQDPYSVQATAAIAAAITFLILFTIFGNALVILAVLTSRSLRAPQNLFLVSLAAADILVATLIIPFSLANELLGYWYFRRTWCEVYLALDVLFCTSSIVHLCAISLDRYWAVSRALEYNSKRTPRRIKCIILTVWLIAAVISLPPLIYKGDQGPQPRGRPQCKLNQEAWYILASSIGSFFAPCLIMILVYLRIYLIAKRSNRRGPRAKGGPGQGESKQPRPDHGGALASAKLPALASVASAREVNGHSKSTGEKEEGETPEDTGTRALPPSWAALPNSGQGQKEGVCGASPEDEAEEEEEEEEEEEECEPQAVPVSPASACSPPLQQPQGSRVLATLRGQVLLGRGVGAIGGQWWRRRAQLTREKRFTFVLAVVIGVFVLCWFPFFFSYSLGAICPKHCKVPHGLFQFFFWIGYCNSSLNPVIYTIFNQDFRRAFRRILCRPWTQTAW
Procedure: as §1

Dopamine D1 = Dopamine D1 (Homo sapiens, UniProt P21728); assay: GPCR counterscreen binding assay
Sequence of Dopamine D1 (P21728 whole entry): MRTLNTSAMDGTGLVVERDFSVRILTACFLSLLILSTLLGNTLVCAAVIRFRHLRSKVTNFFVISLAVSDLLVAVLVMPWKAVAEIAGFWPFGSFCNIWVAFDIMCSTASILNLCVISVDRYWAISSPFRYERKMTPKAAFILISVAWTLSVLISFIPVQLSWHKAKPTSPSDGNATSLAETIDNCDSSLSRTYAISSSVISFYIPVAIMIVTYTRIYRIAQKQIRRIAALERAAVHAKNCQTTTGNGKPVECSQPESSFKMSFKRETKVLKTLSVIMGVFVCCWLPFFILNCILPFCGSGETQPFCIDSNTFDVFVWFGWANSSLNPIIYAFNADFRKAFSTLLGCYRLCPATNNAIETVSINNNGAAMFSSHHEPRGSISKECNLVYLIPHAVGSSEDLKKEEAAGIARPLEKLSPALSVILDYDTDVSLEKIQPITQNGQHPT
Procedure: as §1

Neuropeptide Y (Y1) = Neuropeptide Y (Y1) (Homo sapiens, UniProt P25929); assay: GPCR counterscreen binding assay
Sequence of Neuropeptide Y (Y1) (P25929 whole entry): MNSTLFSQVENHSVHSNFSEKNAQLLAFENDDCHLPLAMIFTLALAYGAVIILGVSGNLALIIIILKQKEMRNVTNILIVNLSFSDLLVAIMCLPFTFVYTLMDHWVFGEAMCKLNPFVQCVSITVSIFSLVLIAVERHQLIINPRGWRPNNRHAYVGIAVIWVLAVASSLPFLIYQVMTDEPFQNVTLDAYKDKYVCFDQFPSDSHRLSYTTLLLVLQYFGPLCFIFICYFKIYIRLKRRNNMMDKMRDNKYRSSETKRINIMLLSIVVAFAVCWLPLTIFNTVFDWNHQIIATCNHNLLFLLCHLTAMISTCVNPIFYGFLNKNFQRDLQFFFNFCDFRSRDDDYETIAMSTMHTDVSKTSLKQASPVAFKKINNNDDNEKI
Procedure: as §1

VR1N = assay: GPCR counterscreen binding assay; conditions: @ 4 μM
Procedure: as §1

Muscarinic M2 = Muscarinic M2 (Homo sapiens, UniProt P08172); assay: GPCR counterscreen binding assay
Procedure: as §1

Mu opiate = Mu opiate (Homo sapiens, UniProt P35372); assay: GPCR counterscreen binding assay
Procedure: as §1

Muscarinic M3 = Muscarinic M3 (Homo sapiens, UniProt P20309); assay: GPCR counterscreen binding assay
Procedure: as §1

Neurokinin NK3 = Neurokinin NK3 (Homo sapiens, UniProt P29371); assay: GPCR counterscreen binding assay
Sequence of Neurokinin NK3 (P29371 whole entry): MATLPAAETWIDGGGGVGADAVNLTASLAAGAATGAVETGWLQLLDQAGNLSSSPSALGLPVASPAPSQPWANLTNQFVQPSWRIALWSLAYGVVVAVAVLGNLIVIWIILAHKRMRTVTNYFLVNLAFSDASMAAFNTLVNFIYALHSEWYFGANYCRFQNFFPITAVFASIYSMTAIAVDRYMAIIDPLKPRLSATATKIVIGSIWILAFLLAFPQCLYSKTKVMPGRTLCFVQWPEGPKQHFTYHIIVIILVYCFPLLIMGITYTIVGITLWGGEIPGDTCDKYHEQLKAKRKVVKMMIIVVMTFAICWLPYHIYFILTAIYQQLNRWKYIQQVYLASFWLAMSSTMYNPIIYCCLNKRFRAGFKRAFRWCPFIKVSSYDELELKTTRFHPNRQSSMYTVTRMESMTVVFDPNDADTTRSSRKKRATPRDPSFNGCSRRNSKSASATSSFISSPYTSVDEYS
Procedure: as §1

Kappa opiate = Kappa opiate (Homo sapiens, UniProt P41145); assay: GPCR counterscreen binding assay
Procedure: as §1

CCR3 = CCR3 (Homo sapiens, UniProt P51677); assay: GPCR counterscreen binding assay
Procedure: as §1

CXCR2 = CXCR2 (Homo sapiens, UniProt P25025); assay: GPCR counterscreen binding assay
Procedure: as §1

Vasopressin (V1a) = Vasopressin (V1a) (Homo sapiens, UniProt P37288); assay: GPCR counterscreen binding assay
Procedure: as §1

Adrenergic α2A = Adrenergic α2A (Homo sapiens, UniProt P08913); assay: GPCR counterscreen binding assay
Procedure: as §1

Neuropeptide Y (Y4) = Neuropeptide Y (Y4) (Homo sapiens, UniProt P50391); assay: GPCR counterscreen binding assay
Procedure: as §1

Adenosine A2A = Adenosine A2A (Homo sapiens, UniProt P29274); assay: GPCR counterscreen binding assay
Procedure: as §1

Adrenergic α2C = Adrenergic α2C (Homo sapiens, UniProt P18825); assay: GPCR counterscreen binding assay
Procedure: as §1

Purinergic P2Y1_2 = assay: GPCR counterscreen binding assay; conditions: @ 4 μM
Procedure: as §1

Adrenergic α1B = Adrenergic α1B (Homo sapiens, UniProt P35368); assay: GPCR counterscreen binding assay
Procedure: as §1

Nociceptin NOP1 = Nociceptin NOP1 (Homo sapiens, UniProt P41146); assay: GPCR counterscreen binding assay
Procedure: as §1

MRGX2 = MRGX2 (Homo sapiens, UniProt Q96LB1); assay: GPCR counterscreen binding assay
Procedure: as §1

CCR7 = CCR7 (Homo sapiens, UniProt P32248); assay: GPCR counterscreen binding assay
Sequence of CCR7 (P32248 25-378): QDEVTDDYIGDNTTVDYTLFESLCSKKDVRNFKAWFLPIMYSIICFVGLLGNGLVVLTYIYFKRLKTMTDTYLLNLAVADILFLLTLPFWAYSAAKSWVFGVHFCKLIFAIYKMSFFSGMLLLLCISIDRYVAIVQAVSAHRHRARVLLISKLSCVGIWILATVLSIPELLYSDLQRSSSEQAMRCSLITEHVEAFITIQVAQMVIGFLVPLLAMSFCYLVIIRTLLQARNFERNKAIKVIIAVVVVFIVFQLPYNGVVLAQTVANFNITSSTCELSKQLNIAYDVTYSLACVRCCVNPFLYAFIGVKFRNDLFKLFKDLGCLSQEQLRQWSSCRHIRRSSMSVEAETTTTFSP
Procedure: as §1

CXCR1 = CXCR1 (Homo sapiens, UniProt P25024); assay: GPCR counterscreen binding assay
Procedure: as §1

Dopamine D2 = Dopamine D2 (Homo sapiens, UniProt P14416); assay: GPCR counterscreen binding assay
Sequence of Dopamine D2 (P14416 whole entry): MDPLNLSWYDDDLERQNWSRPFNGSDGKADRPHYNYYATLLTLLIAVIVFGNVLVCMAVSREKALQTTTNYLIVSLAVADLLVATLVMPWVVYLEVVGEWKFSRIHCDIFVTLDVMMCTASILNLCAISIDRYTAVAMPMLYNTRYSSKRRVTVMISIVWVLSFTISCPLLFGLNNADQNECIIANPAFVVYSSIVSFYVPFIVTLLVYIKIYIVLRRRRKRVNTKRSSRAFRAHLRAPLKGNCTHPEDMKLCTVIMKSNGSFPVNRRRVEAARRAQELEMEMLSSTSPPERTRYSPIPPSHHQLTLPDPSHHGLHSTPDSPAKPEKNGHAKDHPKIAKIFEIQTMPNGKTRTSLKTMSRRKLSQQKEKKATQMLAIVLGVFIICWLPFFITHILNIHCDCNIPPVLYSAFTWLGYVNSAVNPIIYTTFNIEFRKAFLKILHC
Procedure: as §1

MRGX1 = MRGX1 (Homo sapiens, UniProt Q96LB2); assay: GPCR counterscreen binding assay
Procedure: as §1

Muscarinic M1 = Muscarinic M1 (Homo sapiens, UniProt P11229); assay: GPCR counterscreen binding assay
Sequence of Muscarinic M1 (P11229 whole entry): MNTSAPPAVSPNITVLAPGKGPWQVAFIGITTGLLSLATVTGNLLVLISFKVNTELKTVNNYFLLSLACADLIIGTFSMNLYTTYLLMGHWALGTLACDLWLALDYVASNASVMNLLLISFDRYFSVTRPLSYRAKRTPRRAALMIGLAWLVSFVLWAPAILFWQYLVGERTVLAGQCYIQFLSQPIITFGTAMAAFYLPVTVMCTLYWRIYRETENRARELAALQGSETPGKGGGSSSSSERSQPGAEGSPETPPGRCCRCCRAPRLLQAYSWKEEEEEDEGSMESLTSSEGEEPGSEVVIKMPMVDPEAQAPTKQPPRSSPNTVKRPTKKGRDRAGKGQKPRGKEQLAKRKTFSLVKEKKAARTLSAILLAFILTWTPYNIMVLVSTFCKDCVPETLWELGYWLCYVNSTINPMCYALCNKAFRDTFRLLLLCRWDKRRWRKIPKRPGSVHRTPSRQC
Procedure: as §1

Neurokinin NK2 = Neurokinin NK2 (Homo sapiens, UniProt P21452); assay: GPCR counterscreen binding assay
Sequence of Neurokinin NK2 (P21452 whole entry): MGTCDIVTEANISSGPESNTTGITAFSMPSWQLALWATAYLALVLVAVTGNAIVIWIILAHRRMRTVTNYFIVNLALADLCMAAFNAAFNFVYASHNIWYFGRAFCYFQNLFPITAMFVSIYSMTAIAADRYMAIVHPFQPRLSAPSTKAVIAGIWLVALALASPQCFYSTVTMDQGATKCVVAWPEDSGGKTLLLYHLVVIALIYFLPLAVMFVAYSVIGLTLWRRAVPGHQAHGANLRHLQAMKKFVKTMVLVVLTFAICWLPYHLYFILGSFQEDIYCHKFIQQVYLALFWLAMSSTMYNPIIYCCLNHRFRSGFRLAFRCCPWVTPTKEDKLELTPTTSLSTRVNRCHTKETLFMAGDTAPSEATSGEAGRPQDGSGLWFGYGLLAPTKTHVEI
Procedure: as §1

Serotonergic 5HT1A = Serotonergic 5HT1A (Homo sapiens, UniProt P08908); assay: GPCR counterscreen binding assay
Procedure: as §1

Vasopressin (oxytocin) = Vasopressin (oxytocin) (Homo sapiens, UniProt P30559); assay: GPCR counterscreen binding assay
Procedure: as §1

Vasopressin (V1b) = Vasopressin (V1b) (Homo sapiens, UniProt P47901); assay: GPCR counterscreen binding assay
Procedure: as §1

Prokineticin PKR2 = Prokineticin PKR2 (Homo sapiens, UniProt Q8NFJ6); assay: GPCR counterscreen binding assay
Sequence of Prokineticin PKR2 (Q8NFJ6 whole entry): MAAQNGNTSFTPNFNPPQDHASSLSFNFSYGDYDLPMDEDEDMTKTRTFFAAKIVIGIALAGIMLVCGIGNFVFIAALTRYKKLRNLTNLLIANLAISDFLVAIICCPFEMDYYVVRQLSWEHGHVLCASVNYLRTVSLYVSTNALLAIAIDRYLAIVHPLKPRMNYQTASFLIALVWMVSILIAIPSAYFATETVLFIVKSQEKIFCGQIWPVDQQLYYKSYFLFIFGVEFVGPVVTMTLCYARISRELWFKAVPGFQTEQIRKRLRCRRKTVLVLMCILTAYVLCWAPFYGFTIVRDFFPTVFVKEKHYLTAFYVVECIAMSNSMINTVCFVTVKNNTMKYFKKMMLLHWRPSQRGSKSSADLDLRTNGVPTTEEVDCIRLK
Procedure: as §1

male B10.RIII mice = assay: mouse collagen-induced arthritis (disease score and paw histopathology); format: in vivo
Procedure: Briefly, 12-week-old male B10.RIII mice (Jackson Laboratories, Bar Harbor, ME) were immunized intradermally at five sites with bovine type II collagen (Elastin Products, Owensville, MO) emulsified with an equal volume of complete Freund's adjuvant (CFA). CFA was comprised of a mixture of incomplete Freund's adjuvant (Difco, Detroit, MI) and heat-killed, freeze-dried Mycobacteria tuberculosis (Ministry of Agriculture, Fisheries & Food, Surrey, England). Each mouse received 300 µg/ml bovine type II collagen and 0.5 mg/ml complete Freund's adjuvant. Mice were boosted intraperitoneally with 100 µg of bovine type II collagen on day 20. Disease progression was monitored by a standardized visual scoring system with a scale from 0 to 12 reflecting the degree of swelling/redness of each paw (maximal score 3 per paw) and the number of paws (maximal 4) involved per individual animal.
After euthanasia, front and hind paws of the animals were dissected and fixed by immersion in 10% phosphate-buffered formalin before decalcification. Following decalcification with Cal-Rite (Richard Allen Scientific, Kalamazoo, MI), formalin fixed tissues were processed and sectioned at 5µm. Paraffin sections were stained with Hematoxylin and Eosin (H&E). […] The changes in joint structures, including cartilage destruction, bone erosion/remodelling and pannus formation were scored as follows: 0 = Normal, 1 = Minimal, 2 = Mild, 3 = Moderate, 4 = Marked, 5 = Severe. A grade of 5.5 was also added to address full-thickness cartilage breach. Cellular infiltrates and inflammation in animal joints were scored as the following: 0 = Normal, 1 = Minimal, 2 = Mild, 3 = Moderate, 4 = Marked.
Statistical significance was evaluated by comparing the vehicle-treated group with the experimental group using unpaired t-test. Differences were considered significant when p values were <0.05.
Sixteen days later which was 4 days prior to receiving a BC II boost (day -4); mice were randomized into treatment groups with approximately 10% of the animals in each group having developed at least one swollen paw. Oral twice daily treatment with SCH 546738 was initiated at this time (day -4) and continued through day 9, with a BC II antigen boost on day 0.
SCH 546738 in 0.4% methylcellulose was administered orally twice daily at 3, 10 and 40 mg/kg (mpk). Dosing was initiated 16 days (day -4) postimmunization and continued through day 9.
Paws collected at day 9 from the vehicle (0.4% methylcellulose) and 40 mpk SCH 546738 groups of two independent experiments were analyzed by histopathology.

[1] = 40 mpk, paws collected on day 9

CC[C@H]1CN(c2nc(N)c(C(N)=O)nc2Cl)CCN1C1CCN(Cc2ccc(Cl)cc2)CC1 [SCH 546738]
inhibition at 4 µM (Vasopressin (V2)): 18%
inhibition at 2 µM (Histamine H1): 46%
inhibition at 4 µM (Delta opiate): 12%
inhibition at 4 µM (Adenosine A1): 0%
inhibition at 4 µM (Muscarinic M4): 30%
inhibition at 4 µM (Neuropeptide Y (Y2)): -9%
inhibition at 2 µM (Histamine H3): 29%
inhibition at 10 µM (CCR2): 9%
inhibition at 4 µM (Prokineticin PKR1): -1%
inhibition at 4 µM (Neuropeptide Y (Y5)): 12%
inhibition at 2 µM (Adrenergic α1A): 11%
inhibition at 10 µM (Dopamine D4.2): 18%
inhibition at 2 µM (Adrenergic α2B): -2%
inhibition at 4 µM (Dopamine D1): 6%
inhibition at 4 µM (Neuropeptide Y (Y1)): 4%
Inhibition (%) (VR1N): 0% @ 4 μM
inhibition at 4 µM (Muscarinic M2): 52%
inhibition at 4 µM (Mu opiate): 22%
inhibition at 4 µM (Muscarinic M3): 27%
inhibition at 2 µM (Neurokinin NK3): 0%
inhibition at 4 µM (Kappa opiate): 7%
inhibition at 10 µM (CCR3): 17%
inhibition at 10 µM (CXCR2): 20%
inhibition at 4 µM (Vasopressin (V1a)): 7%
inhibition at 1 µM (Adrenergic α2A): 45%
inhibition at 4 µM (Neuropeptide Y (Y4)): -2%
inhibition at 4 µM (Adenosine A2A): 3%
inhibition at 1 µM (Adrenergic α2C): 76%
Inhibition (%) (Purinergic P2Y1_2): 10% @ 4 μM
inhibition at 2 µM (Adrenergic α1B): 25%
inhibition at 4 µM (Nociceptin NOP1): -21%
inhibition at 4 µM (MRGX2): 25%
inhibition at 10 µM (CCR7): 0%
inhibition at 10 µM (CXCR1): 13%
inhibition at 4 µM (Dopamine D2): 41%
inhibition at 4 µM (MRGX1): 1%
inhibition at 4 µM (Muscarinic M1): 22%
inhibition at 2 µM (Neurokinin NK2): 0%
inhibition at 4 µM (Serotonergic 5HT1A): 20%
inhibition at 4 µM (Vasopressin (oxytocin)): 12%
inhibition at 4 µM (Vasopressin (V1b)): 15%
inhibition at 4 µM (Prokineticin PKR2): -5%
effect on disease severity (male B10.RIII mice; 3 mpk oral twice daily): no statistically significant effect
effect on disease score (male B10.RIII mice; 10 mpk oral twice daily, days 7 and 9): protected significantly
effect on disease score (male B10.RIII mice; 40 mpk oral twice daily, day -4 to day 9, days 4, 7 and 9): significant reduction of the disease score
leukocyte infiltration into the joint (histopathology score) (male B10.RIII mice; [1]): significantly attenuated
structural damage to the bone and cartilage (histopathology score) (male B10.RIII mice; [1]): significantly attenuated
